Measurements from PubChem BioAssay (NCI).
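48-hour exposure; five concentrations; linearly interpolated endpoints. Abbreviation: GI50, concentration required for 50% inhibition of growth. TGI denotes the concentration required for complete inhibition of growth.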

Assays:
Test in all cases: DTP human tumour cell line panel, 48 h
A498 renal = system: A498 renal
ACHN renal = system: ACHN renal
LOX IMVI melanoma = system: LOX IMVI melanoma
NCI-H226 lung = system: NCI-H226 lung
OVCAR-3 ovarian = system: OVCAR-3 ovarian
OVCAR-8 ovarian = system: OVCAR-8 ovarian
BT-549 breast = system: BT-549 breast
MCF7 breast = system: MCF7 breast
NCI/ADR-RES ovarian = system: NCI/ADR-RES ovarian
DU-145 prostate = system: DU-145 prostate

Molecule	TGI (A498 renal) [µM]	TGI (ACHN renal) [µM]	TGI (LOX IMVI melanoma) [µM]	TGI (NCI-H226 lung) [µM]	TGI (OVCAR-3 ovarian) [µM]	TGI (OVCAR-8 ovarian) [µM]	GI50 (A498 renal) [µM]	GI50 (ACHN renal) [µM]	GI50 (BT-549 breast) [µM]	TGI (BT-549 breast) [µM]	GI50 (LOX IMVI melanoma) [µM]	GI50 (MCF7 breast) [µM]	TGI (MCF7 breast) [µM]	GI50 (NCI-H226 lung) [µM]	GI50 (NCI/ADR-RES ovarian) [µM]	TGI (NCI/ADR-RES ovarian) [µM]	GI50 (OVCAR-3 ovarian) [µM]	GI50 (OVCAR-8 ovarian) [µM]	GI50 (DU-145 prostate) [µM]	TGI (DU-145 prostate) [µM]
Cc1ccc(C(=O)C#Cc2c[nH]c(=O)[nH]c2=O)cc1	28	29	15	34.5	29.8	25.1														
CN(C)C1=NC2=S(SC(Nc3ccccc3)=N2)S1 (stereo unspecified)	46.1	> 100	> 100	> 100		> 100														
COC(=O)C1=C(c2ccc3c(c2)OCO3)OC(c2ccc3c(c2)OCO3)C1 (stereo unspecified)	> 100	> 100	> 100	> 100	> 100	> 100														
COc1cc(/C=C2\C(=O)N(c3ccccc3)c3ccccc32)cc(OC)c1OC	38.9	20.7	4.61	29.3	26.1	45.5	18.1	6.32	15.5	47.4	2.24	8.05	> 100	9.69	6.37	27.1	5.93	8.83		
COc1ccccc1C(N)c1ccccc1 (stereo unspecified)	> 100	> 100	> 100	> 100	> 100	> 100														
Cc1ccc(-c2nc(N)c(C#N)c3c2CCOc2c-3ccc3ccccc23)cc1	0.609	> 36.1		> 100	1.86	27.8	0.0794	0.847	3.85	54		0.284	> 34.4	> 100	0.331	31.5	0.069	2.28	2.04	17.2
CCCCCCCCCCCCCCCCCC(=O)OCC(COC1OC(CS(=O)(=O)O)C(O)C(O)C1O)OC(=O)CCCCCCCCCCCCCCCCC (stereo unspecified)	> 100	> 100	> 100	> 100	> 100	> 100							> 100			> 100				> 100
N#C/C(=C1C=C/C(=N\O)C(Cl)=C\1)c1ccccc1	64.7	11.6		12.4	17	9.23	3.34	0.733	4.36	16.2		0.321	11.5	3.13	1.66	5.17	3.31	2.71	3.32	9.47
N#CCCSC(=S)C1CCCC1=N (stereo unspecified)	> 100	> 100		> 100	> 100	> 100				> 100			> 100			> 100				> 100
NC(=O)Nc1c([N+](=O)[O-])cc(C(F)(F)F)cc1[N+](=O)[O-]	> 100	> 100	> 100	> 100	82.5	> 100														
O=C(O)c1cccc2cccc(C(=O)O)c12.[Hg]	32.3	31.8	27.9	40.7	30	46.2	18.3	17.7			14.7			21.1			15.3	20.5		
COc1ccc(C(=O)CC(=O)C(=O)Nc2ccc(C)c(C)c2)cc1	> 100	> 100	> 55.7	> 100	> 100	> 100														
Cc1ccc(NC2=C(Cl)C(=O)N(Cc3ccccc3)C2=O)cc1Cl		26.6	14.2	3.83	15	9.93		11.1	1.68	14.9	2.53	3.3	13.7	0.144	6.11	20.6	3.82	2.32	14.4	27.8
NCCCNCCSSC/C=C\CSSCCNCCCN	> 100	> 100	> 100		> 100	> 100														
NC(=O)CCC(NC(=O)Cc1ccccc1)C(=O)O (stereo unspecified) (tested in a mixture with another compound)	> 8130				> 8130	> 8130														
COC(=O)C(Cc1ccccc1)NC(=O)Cn1ccnc1[N+](=O)[O-] (stereo unspecified)	> 100	> 100	> 100	> 100		> 100														
COC(=O)CS(=O)c1ccccc1 (stereo unspecified)	> 100	> 100	44.4		> 100	87.9														
CCOC(=O)C(=O)Nc1c(C)cccc1C(C)C	> 100	> 100		> 100	> 100	> 100														
O=C(O)c1c[nH]c2c(OCc3ccccc3)c3ccccc3c(O)c2c1=O			11		11.8	40.9					3.24	14.9	34.3		16.5	47.7	1.86	11.8	21.1	37.2
CCOC(=O)NC(=O)c1cn(CCCOC(=O)NCCCCCCNC(=O)OCCCn2cc(C(=O)NC(=O)OCC)c(=O)[nH]c2=O)c(=O)[nH]c1=O	44.1	32.9	> 100		42.4	> 100														
Cc1nn(-c2ccccc2)c2nc3c(nc12)C1=NCCN1C(c1ccc(Cl)cc1)N3 (stereo unspecified)	17.9	13.2	3.91	14.4	7.18	21	4.01	3.62	12.6	27.1	1.94			5.04	13.4	32	2.63	6.29	5.9	17.9

Molecule	TGI (A498 renal) [µM]	TGI (ACHN renal) [µM]	TGI (LOX IMVI melanoma) [µM]	TGI (NCI-H226 lung) [µM]	TGI (OVCAR-3 ovarian) [µM]	TGI (OVCAR-8 ovarian) [µM]	GI50 (A498 renal) [µM]	GI50 (ACHN renal) [µM]	GI50 (BT-549 breast) [µM]	TGI (BT-549 breast) [µM]	GI50 (LOX IMVI melanoma) [µM]	GI50 (MCF7 breast) [µM]	TGI (MCF7 breast) [µM]	GI50 (NCI-H226 lung) [µM]	GI50 (NCI/ADR-RES ovarian) [µM]	TGI (NCI/ADR-RES ovarian) [µM]	GI50 (OVCAR-3 ovarian) [µM]	GI50 (OVCAR-8 ovarian) [µM]	GI50 (DU-145 prostate) [µM]	TGI (DU-145 prostate) [µM]
COc1ccc(NC(=O)CC(=O)N2N=C(N(CCC#N)c3cccc(C)c3)CC2c2ccccc2)cc1 (stereo unspecified)		> 100		> 100	> 100	> 100														
CC1=NC(C(C)C)C(=O)O1 (stereo unspecified)	> 100	> 100		> 100	> 100	> 100														
CC(=O)c1ccc(NC(=O)C(=O)C(C(=O)c2ccc(Cl)c(Cl)c2)C2OC(=O)c3ccccc32)cc1 (stereo unspecified)	37.6	45.5	32.6	24.6	42.6	27.6														
O=C1c2cc([N+](=O)[O-])cc3cc([N+](=O)[O-])cc(c23)C(=O)N1CCCNCCNCCCN1C(=O)c2cc([N+](=O)[O-])cc3cc([N+](=O)[O-])cc(c23)C1=O	13.4	> 23.2		2.57	2.35	3.39				5.51			11.7			> 100				19.4
H-HIIKKIRTWYRKAWHVLGKV-NH2		28.6	82.3	39.2	39.3	> 100		13.2	12.8	32.1	21.7	2.05	4.58	4.15	5.85	28.5	10.4	4.74	4.26	15.3
COC(=O)C1=C(CS(=O)c2ccc([N+](=O)[O-])cc2[N+](=O)[O-])ON(C)C1c1ccccc1 (stereo unspecified)	> 100	> 100	35	> 100	> 100	> 100														
C=C(C)[C@@H]1CC[C@]2(C(=O)O)CC[C@]3(C)[C@H](CC[C@@H]4[C@@]5(C)C/C(=C/c6ccc(OC)cc6)C(=O)C(C)(C)[C@@H]5CC[C@]43C)[C@@H]12	8.47	10.5		4.3	3.23	33.1	2.28	2.77	1.89	4.34		2.59	7.74	1.85	2.84	13.3	1.69	3.16	3.09	15.3
O=C(NC1CCCCC1)NS(=O)(=O)c1ccc(-n2nc3c(c2-c2ccc(Cl)cc2)Cc2ccccc2-3)cc1	40.2	21	4.12	54.9	28.8	49.6	18.5	7.93	3.52	17.3	1.94	15.3	45.7	6.15			13.7	11.9	6.39	20.3
Cc1cc(=O)oc2c(OS(C)(=O)=O)c(OS(C)(=O)=O)ccc12	> 100	> 100	> 100	> 100	> 100	> 100				> 100			> 100			> 100				
O=C(c1nc2ccc(Cl)cc2[nH]c1=O)C(O)c1ccc2c(c1)OCO2 (stereo unspecified)	> 100	> 100	> 100	> 100		> 100														
CCC[CH2][Sn]1([CH2]CCC)[O]CC(CN2CCOCC2)[O]1 (stereo unspecified)	17.2	9.61	5.7	34.8	8.23	10.8	5.5	3.02			2.02			20.2			2.13	3.35		
Oc1ccc(-c2cn3cc(Cl)sc3n2)cc1	> 100	24.6	86.2	48.5	64.1	> 100	57.5	3.98	32.1	> 100	32.3	6.77	26.9	5.49			22.5	56.3		
CCOC(=O)N[C@@H]1C2CC(=O)C(O2)[C@@H]1OC (stereo partly specified)		> 100	> 100	> 100	> 100	> 100														
CCOC(=O)c1c(Cl)c2c(n1Cc1cccc(OC)c1)-c1oncc1CC2	5.69	> 100	> 100	> 100	2.92	> 100	0.382	4.54			2.51	0.62	> 100	6.82	0.497	6.91	0.383	7.27	2.42	27
COC1OC(COS(=O)(=O)c2ccc(C)cc2)C(O)C(OS(=O)(=O)c2ccc(C)cc2)C1OS(=O)(=O)c1ccc(C)cc1 (stereo unspecified)		> 100		> 100	> 100	> 100														
CCOC(=O)C(C(=O)OCC)=C1N[C@H](C(=O)OCC)CS1		> 100	> 100	> 100	> 100	> 100														
COC1=CC(c2ccc[nH]2)=N/C1=C\c1[nH]c(C)c(C(C)=O)c1C	57	> 55.8		> 82.1	> 100	> 100	18.1	0.67	0.222	> 100		1.05	> 100	2.6	0.458	> 100	0.178	0.326	0.355	> 100
COc1ccc(-c2nc(N3CCOCC3)c3sc(CN(C)c4ncc(C(=O)NO)cn4)cc3n2)cn1	0.0544	0.0345		1.13	0.0282	0.222	< 0.0155	< 0.01	0.014	0.15		< 0.01	0.366	0.0112			< 0.01	< 0.01	< 0.01	0.141
CCCc1nc(NC#N)nc(C(=O)NC23CC4CC(CC(C4)C2)C3)c1C	> 100	> 100	> 100	> 100	> 100	> 100														
Cc1c(-c2nnc(-c3ccc(F)cc3)o2)nnn1-c1ccnc2c(C(F)(F)F)cccc12		> 100	> 100	> 100	> 100	> 100		30.8	21.6	58.1	44.5	20.9	> 100	67.2	40.3	> 100	28.7	41.8	30.4	> 100
